Experimental data taken from patent US20230372498A1, “PLK1 SELECTIVE DEGRADATION INDUCING COMPOUND” (UPPTHERA, priority 2020, published 2023).

Target: T1, PLK1 (Homo sapiens, UniProt P53350)
T1 construct: endogenous in cells; host or cells: HeLa
Experiment: PLK1 protein degradation in HeLa cells, Western blotting (PLK1/GAPDH ratio)
Format: cell-based
Settings: 6 hours compound incubation; for DC50: measured only if the grade of Dmax is A or B; for Dmax: thymidine block and release, 10 points three-fold from 3 μM, PLK1 to GAPDH ratio, read-out: Dmax
In short: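 Thymidine-synchronised HeLa cells (2 mM, 24 h) released 4 h into complete medium, then treated 6 h with compound in 10-point 3-fold dilutions from 3 μM. RIPA lysates (15 μg protein) run on SDS-PAGE; PLK1 Western blot normalised to GAPDH.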

T1 sequence (P53350 whole entry): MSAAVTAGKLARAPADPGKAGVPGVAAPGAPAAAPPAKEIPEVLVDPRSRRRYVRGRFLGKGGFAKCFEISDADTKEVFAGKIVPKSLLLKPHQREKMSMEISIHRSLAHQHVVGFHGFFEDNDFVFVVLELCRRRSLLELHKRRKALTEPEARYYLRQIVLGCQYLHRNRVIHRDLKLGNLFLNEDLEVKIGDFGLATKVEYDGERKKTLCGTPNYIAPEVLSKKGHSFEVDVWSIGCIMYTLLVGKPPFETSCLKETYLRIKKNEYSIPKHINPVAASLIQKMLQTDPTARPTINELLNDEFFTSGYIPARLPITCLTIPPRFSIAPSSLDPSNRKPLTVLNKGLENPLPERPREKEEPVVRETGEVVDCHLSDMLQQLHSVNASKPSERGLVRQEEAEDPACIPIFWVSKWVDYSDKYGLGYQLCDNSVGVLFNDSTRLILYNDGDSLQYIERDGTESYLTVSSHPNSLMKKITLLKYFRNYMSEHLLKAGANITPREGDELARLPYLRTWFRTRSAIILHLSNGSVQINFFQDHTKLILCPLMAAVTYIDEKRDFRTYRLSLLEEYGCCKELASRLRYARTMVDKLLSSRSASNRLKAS

| SMILES | DC50 [µM] | Dmax [%] |
| --- | --- | --- |
| COc1cc(C(=O)NC2CCN(C(=O)CCCCNc3cccc4c3C(=O)N(C3CCC(=O)NC3=O)C4=O)C2)c(F)cc1Nc1ncc2c(n1)N(C1CCCC1)CC(F)(F)C(=O)N2C (stereo not drawn) [Compound 117, 4-((9-cyclopentyl-7,7-difluoro-5-methyl-6-oxo-6,7,8,9-tetrahydro-5H-pyrimido[4,5-b][1,4]diazepin-2-yl)amino)-N-(1-(5-((2-(2,6-dioxopiperidin-3-yl)-1,3-dioxoisoindolin-4-yl)amino)pentanoyl)pyrrolidin-3-yl)-2-fluoro-5-methoxybenzamide] | ≤ 0.05 | ≥ 80 |
| COc1cc(C(=O)NC2CCN(CCCCCCCCOc3cc(-c4scnc4C)ccc3CNC(=O)[C@@H]3C[C@@H](O)CN3C(=O)[C@@H](NC(=O)C3(F)CC3)C(C)(C)C)CC2)c(F)cc1Nc1ncc2c(n1)N(C1CCCC1)CC(F)(F)C(=O)N2C [Example 89, (2S,4R)—N-(2-((8-(4-(4-((9-cyclopentyl-7,7-difluoro-5-methyl-6-oxo-6,7,8,9-tetrahydro-5H-pyrimido[4,5-b][1,4]diazepin-2-yl)amino)-2-fluoro-5-methoxybenzamido)piperidin-1-yl)octyl)oxy)-4-(4-methylthiazol-5-yl)benzyl)-1-((S)-2-(1-fluorocyclopropane-1-carboxamido)-3,3-dimethylbutanoyl)-4-hydroxypyrrolidine-2-carboxamide] | ≤ 0.5 | 60 to 80 |
| COc1cc(C(=O)N[C@H]2CCN(CCOCCNC(=O)CNc3cccc4c3C(=O)N(C3CCC(=O)NC3=O)C4=O)C2)c(F)cc1Nc1ncc2c(n1)N(C1CCCC1)CC(F)(F)C(=O)N2C (stereo partly drawn) [Example 112, 4-((9-cyclopentyl-7,7-difluoro-5-methyl-6-oxo-6,7,8,9-tetrahydro-5H-pyrimido[4,5-b][1,4]diazepin-2-yl)amino)-N-((3S)-1-(2-(2-(2-((2-(2,6-dioxopiperidin-3-yl)-1,3-dioxoisoindolin-4-yl)amino)acetamido)ethoxy)ethyl)pyrrolidin-3-yl)-2-fluoro-5-methoxybenzamide] | ≤ 0.5 | 60 to 80 |
| COc1cc(C(=O)N[C@@H]2CCN(C(=O)CCCCCNc3cccc4c3C(=O)N(C3CCC(=O)NC3=O)C4=O)C2)c(F)cc1Nc1ncc2c(n1)N(C1CCCC1)CC(F)(F)C(=O)N2C (stereo partly drawn) [Compound 120, 4-((9-cyclopentyl-7,7-difluoro-5-methyl-6-oxo-6,7,8,9-tetrahydro-5H-pyrimido[4,5-b][1,4]diazepin-2-yl)amino)-N-((3R)-1-(6-((2-(2,6-dioxopiperidin-3-yl)-1,3-dioxoisoindolin-4-yl)amino)hexanoyl)pyrrolidin-3-yl)-2-fluoro-5-methoxybenzamide] | ≤ 0.05 | ≥ 80 |
| COc1cc(C(=O)NC2CCN(CCOCCOCCOCCOc3cc(-c4scnc4C)ccc3CNC(=O)[C@@H]3C[C@@H](O)CN3C(=O)[C@@H](NC(=O)C3(F)CC3)C(C)(C)C)CC2)c(F)cc1Nc1ncc2c(n1)N(C1CCCC1)CC(F)(F)C(=O)N2C [Example 87, (2S,4R)—N-(2-(2-(2-(2-(2-(4-(4-((9-cyclopentyl-7,7-difluoro-5-methyl-6-oxo-6,7,8,9-tetrahydro-5H-pyrimido[4,5-b][1,4]diazepin-2-yl)amino)-2-fluoro-5-methoxybenzamido)piperidin-1-yl)ethoxy)ethoxy)ethoxy)ethoxy)-4-(4-methylthiazol-5-yl)benzyl)-1-((S)-2-(1-fluorocyclopropane-1-carboxamido)-3,3-dimethylbutanoyl)-4-hydroxypyrrolidine-2-carboxamide] |  | < 60 |
| CN1C(=O)C(F)(F)CN(C2CCCC2)c2nc(Nc3ccc(C(=O)N[C@H]4CCN(C(=O)CCC(=O)N5CCN(c6ccc7c(c6)C(=O)N(C6CCC(=O)NC6=O)C7=O)CC5)C4)cc3)ncc21 (stereo partly drawn) [Compound 146, 4-((9-cyclopentyl-7,7-difluoro-5-methyl-6-oxo-6,7,8,9-tetrahydro-5H-pyrimido[4,5-b][1,4]diazepin-2-yl)amino)-N-((3S)-1-(4-(4-(2-(2,6-dioxopiperidin-3-yl)-1,3-dioxoisoindolin-5-yl)piperazin-1-yl)-4-oxobutanoyl)pyrrolidin-3-yl)benzamide] |  | < 60 |
| COc1cc(C(=O)NC2CCN(CCCCCCNc3cccc4c3C(=O)N(C3CCC(=O)NC3=O)C4=O)CC2)c(F)cc1Nc1ncc2c(n1)N(C1CCCC1)CC(F)(F)C(=O)N2C (stereo not drawn) [Compound 10, 4-((9-cyclopentyl-7,7-difluoro-5-methyl-6-oxo-6,7,8,9-tetrahydro-5H-pyrimido[4,5-b][1,4]diazepin-2-yl)amino)-N-(1-(6-((2-(2,6-dioxopiperidin-3-yl)-1,3-dioxoisoindolin-4-yl)amino)hexyl)piperidin-4-yl)-2-fluoro-5-methoxybenzamide] | ≤ 0.5 | 60 to 80 |
| COc1cc(C(=O)NCCOCCOCCNc2cccc3c2C(=O)N(C2CCC(=O)NC2=O)C3=O)c(F)cc1Nc1ncc2c(n1)N(C(C)C)CC(F)(F)C(=O)N2C (stereo not drawn) [Example 167, 4-((7,7-difluoro-9-isopropyl-5-methyl-6-oxo-6,7,8,9-tetrahydro-5H-pyrimido[4,5-b][1,4]diazepin-2-yl)amino)-N-(2-(2-(2-((2-(2,6-dioxopiperidin-3-yl)-1,3-dioxoisoindolin-4-yl)amino)ethoxy)ethoxy)ethyl)-2-fluoro-5-methoxybenzamide] |  | 60 to 80 |
| COc1cc(C(=O)NC2CCN(Cc3cn(CCOCCNc4cccc5c4C(=O)N(C4CCC(=O)NC4=O)C5=O)nn3)CC2)c(F)cc1Nc1ncc2c(n1)N(C1CCCC1)CC(F)(F)C(=O)N2C (stereo not drawn) [Compound 44, 4-((9-cyclopentyl-7,7-difluoro-5-methyl-6-oxo-6,7,8,9-tetrahydro-5H-pyrimido[4,5-b][1,4]diazepin-2-yl)amino)-N-(1-((1-(2-(2-((2-(2,6-dioxopiperidin-3-yl)-1,3-dioxoisoindolin-4-yl)amino)ethoxy)ethyl)-1H-1,2,3-triazol-4-yl)methyl)piperidin-4-yl)-2-fluoro-5-methoxybenzamide] | ≤ 0.05 | ≥ 80 |
| COc1cc(C(=O)NC2CCN(CCOCCOCCOCCOCCNc3ccc4c(c3)C(=O)N(C3CCC(=O)NC3=O)C4=O)CC2)c(F)cc1Nc1ncc2c(n1)N(C1CCCC1)CC(F)(F)C(=O)N2C (stereo not drawn) [Compound 51, 4-((9-cyclopentyl-7,7-difluoro-5-methyl-6-oxo-6,7,8,9-tetrahydro-5H-pyrimido[4,5-b][1,4]diazepin-2-yl)amino)-N-(1-(14-((2-(2,6-dioxopiperidin-3-yl)-1,3-dioxoisoindolin-5-yl)amino)-3,6,9,12-tetraoxatetradecyl)piperidin-4-yl)-2-fluoro-5-methoxybenzamide] | ≤ 0.05 | ≥ 80 |
| COc1cc(C(=O)NC2CCN(C(=O)CCCNc3cccc4c3C(=O)N(C3CCC(=O)NC3=O)C4=O)CC2)c(F)cc1Nc1ncc2c(n1)N(C1CCCC1)CC(F)(F)C(=O)N2C (stereo not drawn) [Compound 39, 4-((9-cyclopentyl-7,7-difluoro-5-methyl-6-oxo-6,7,8,9-tetrahydro-5H-pyrimido[4,5-b][1,4]diazepin-2-yl)amino)-N-(1-(4-((2-(2,6-dioxopiperidin-3-yl)-1,3-dioxoisoindolin-4-yl)amino)butanoyl)piperidin-4-yl)-2-fluoro-5-methoxybenzamide] | ≤ 0.05 | ≥ 80 |
| COc1cc(C(=O)NC2CCN(CCC(=O)NCCCCCCCNC(=O)COc3cccc4c3C(=O)N(C3CCC(=O)NC3=O)C4=O)CC2)c(F)cc1Nc1ncc2c(n1)N(C1CCCC1)CC(F)(F)C(=O)N2C (stereo not drawn) [Compound 60, 4-((9-cyclopentyl-7,7-difluoro-5-methyl-6-oxo-6,7,8,9-tetrahydro-5H-pyrimido[4,5-b][1,4]diazepin-2-yl)amino)-N-(1-(3-((7-(2-((2-(2,6-dioxopiperidin-3-yl)-1,3-dioxoisoindolin-4-yl)oxy)acetamido)heptyl)amino)-3-oxopropyl)piperidin-4-yl)-2-fluoro-5-methoxybenzamide] | ≤ 0.05 | ≥ 80 |
| COc1cc(C(=O)NC2CCN(CCOCCOCCOCCOCCOCCNc3cccc4c3C(=O)N(C3CCC(=O)NC3=O)C4=O)CC2)c(F)cc1Nc1ncc2c(n1)N(C1CCCC1)CC(F)(F)C(=O)N2C (stereo not drawn) [Compound 5, 4-((9-cyclopentyl-7,7-difluoro-5-methyl-6-oxo-6,7,8,9-tetrahydro-5H-pyrimido[4,5-b][1,4]diazepin-2-yl)amino)-N-(1-(17-((2-(2,6-dioxopiperidin-3-yl)-1,3-dioxoisoindolin-4-yl)amino)-3,6,9,12,15-pentaoxaheptadecyl)piperidin-4-yl)-2-fluoro-5-methoxybenzamide] | ≤ 0.05 | ≥ 80 |
| COc1cc(C(=O)NC2CCN(CCOCCOCCNc3cccc4c3C(=O)N(C3CCC(=O)NC3=O)C4=O)C2)c(F)cc1Nc1ncc2c(n1)N(C1CCCC1)CC(F)(F)C(=O)N2C (stereo not drawn) [Example 107, 4-((9-cyclopentyl-7,7-difluoro-5-methyl-6-oxo-6,7,8,9-tetrahydro-5H-pyrimido[4,5-b][1,4]diazepin-2-yl)amino)-N-(1-(2-(2-(2-((2-(2,6-dioxopiperidin-3-yl)-1,3-dioxoisoindolin-4-yl)amino)ethoxy)ethoxy)ethyl)pyrrolidin-3-yl)-2-fluoro-5-methoxybenzamide] | ≤ 0.05 | ≥ 80 |
| COc1cc(C(=O)NC2CCN(CC3CCN(c4ccc5c(c4)C(=O)N(C4CCC(=O)NC4=O)C5=O)CC3)CC2)c(F)cc1Nc1ncc2c(n1)N(C1CCCC1)CC(F)(F)C(=O)N2C (stereo not drawn) [Compound 67, 4-((9-cyclopentyl-7,7-difluoro-5-methyl-6-oxo-6,7,8,9-tetrahydro-5H-pyrimido[4,5-b][1,4]diazepin-2-yl)amino)-N-(1-((1-(2-(2,6-dioxopiperidin-3-yl)-1,3-dioxoisoindolin-5-yl)piperidin-4-yl)methyl)piperidin-4-yl)-2-fluoro-5-methoxybenzamide] | ≤ 0.5 | 60 to 80 |
